Experimental data: the supplement of paper PMC10307832

Experiments:
Test in all cases: relative viability (nuclei count vs DMSO), 5 days (fraction); higher = more cells survive
Doramapimod + AZD7762 = compound: Cc1ccc(-n2nc(C(C)(C)C)cc2NC(=O)Nc2ccc(OCCN3CCOCC3)c3ccccc23)cc1 [Doramapimod] + NC(=O)Nc1cc(-c2cccc(F)c2)sc1C(=O)N[C@H]1CCCNC1 [AZD7762] (partner 0.2 µM)
Summary of the method: (§1)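 One day after seeding in 1536-well plates, lung cancer cell lines were dosed by pin tool. Dosing was either single-drug or a fixed anchor-drug dose plus five library-drug doses (not always all listed) in √10 steps. After 5 days, nuclei were stained in one fix-and-stain step and counted on 4× images, and relative viability is the nuclei count of treated wells over that of vehicle wells, given as the median of duplicate plates.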

IPA-3 + Luminespib = compound: C1=CC=C2C(=C1)C=CC(=C2SSC3=C(C=CC4=CC=CC=C43)O)O [IPA-3] + CCNC(=O)c1noc(-c2cc(C(C)C)c(O)cc2O)c1-c1ccc(CN2CCOCC2)cc1 [Luminespib] (partner 0.01 µM)
Summary of the method: as §1

Doramapimod + Phenformin = compound: Cc1ccc(-n2nc(C(C)(C)C)cc2NC(=O)Nc2ccc(OCCN3CCOCC3)c3ccccc23)cc1 [Doramapimod] + N=C(N)NC(=N)NCCc1ccccc1 [Phenformin] (partner 250 µM)
Summary of the method: as §1

Doramapimod + Tozasertib = compound: Cc1ccc(-n2nc(C(C)(C)C)cc2NC(=O)Nc2ccc(OCCN3CCOCC3)c3ccccc23)cc1 [Doramapimod] + Cc1cc(Nc2cc(N3CCN(C)CC3)nc(Sc3ccc(NC(=O)C4CC4)cc3)n2)n[nH]1 [Tozasertib] (partner 0.1 µM)
Summary of the method: as §1

Cell Line	relative viability (Doramapimod + AZD7762; first compound 0.02 µM)	relative viability (Doramapimod + AZD7762; first compound 0.06325 µM)	relative viability (Doramapimod + AZD7762; first compound 0.2 µM)	relative viability (Doramapimod + AZD7762; first compound 0.6325 µM)	relative viability (Doramapimod + AZD7762; first compound 2 µM)	relative viability (IPA-3 + Luminespib; first compound 0.2 µM)	relative viability (IPA-3 + Luminespib; first compound 0.6325 µM)	relative viability (IPA-3 + Luminespib; first compound 2 µM)	relative viability (IPA-3 + Luminespib; first compound 6.325 µM)	relative viability (IPA-3 + Luminespib; first compound 20 µM)	relative viability (Doramapimod + Phenformin; first compound 0.02 µM)	relative viability (Doramapimod + Phenformin; first compound 0.06325 µM)	relative viability (Doramapimod + Phenformin; first compound 0.2 µM)	relative viability (Doramapimod + Phenformin; first compound 0.6325 µM)	relative viability (Doramapimod + Phenformin; first compound 2 µM)	relative viability (Doramapimod + Tozasertib; first compound 0.02 µM)	relative viability (Doramapimod + Tozasertib; first compound 0.06325 µM)	relative viability (Doramapimod + Tozasertib; first compound 0.2 µM)	relative viability (Doramapimod + Tozasertib; first compound 0.6325 µM)	relative viability (Doramapimod + Tozasertib; first compound 2 µM)
LU99A	0.349	0.37	0.339	0.339	0.326	0.295	0.179	0.292	0.206	0.214	0.768	0.851	0.942	0.846	0.712	0.307	0.248	0.294	0.252	0.264
LXF-289	1.07	1.16	1.14	1.1	1.12	0.844	0.648	0.646	0.814	0.691	0.491	0.556	0.472	0.459	0.44	0.207	0.177	0.177	0.19	0.203
NCI-H23	0.247	0.221	0.363	0.354	0.143	0.221	0.224	0.201	0.227	0.204	0.786	0.781	0.788	0.828	0.656	0.622	0.34	0.366	0.433	0.326
NCI-H322M	0.564	0.593	0.52	0.484	0.687	0.964	0.722	1.08	1.02	1.13	0.813	0.782	0.852	0.909	0.828	0.519	0.487	0.532	0.497	0.531
NCI-H358	0.486	0.522	0.438	0.363	0.38	0.535	0.313	0.265	0.385	0.255	0.301	0.314	0.305	0.385	0.356	0.0934	0.0925	0.101	0.105	0.109
NCI-H441	1.07	1.28	1.21	0.98	0.961	0.401	0.29	0.407	0.324	0.422	0.895	0.808	0.828	–	0.729	0.719	0.63	0.576	–	0.622
NCI-H460	0.658	0.702	0.726	0.805	0.531	0.0346	0.0286	0.0329	0.0351	0.0331	0.51	0.54	0.581	0.595	0.454	0.455	0.517	0.49	0.673	0.372
NCI-H522	0.879	0.744	0.708	0.736	0.9	1.34	1.05	1.25	1.05	1.07	0.6	0.573	0.621	0.677	0.603	0.501	0.489	0.579	0.59	0.471
NCI-H596	1.27	1.08	1.13	1.31	1.1	1.17	0.955	1.04	0.637	0.662	0.672	0.689	0.672	0.795	0.703	0.939	0.862	1.11	0.982	0.883
NCI-H647	0.602	0.616	0.461	0.485	0.454	0.192	0.148	0.176	0.142	0.102	0.436	0.593	0.614	0.543	0.494	0.317	0.288	0.328	0.24	0.327
NCI-H650	0.88	1.11	0.941	1.16	1.02	0.964	0.851	0.733	0.805	1.06	0.495	0.458	0.527	0.431	0.389	0.757	0.823	0.804	0.798	0.654
NCI-H727	0.605	0.576	0.642	0.487	0.528	0.318	1.29	0.755	0.33	0.24	0.652	0.498	0.445	0.544	0.576	0.633	0.644	0.559	0.702	0.536
NCI-H838	0.869	0.962	0.958	0.902	0.92	0.238	0.218	0.306	0.276	0.378	0.607	0.577	0.654	0.665	0.595	0.299	0.27	0.285	0.253	0.257
NCI-H1355	0.663	0.82	0.853	0.767	0.743	0.889	0.677	0.719	0.702	0.757	0.423	0.467	0.454	0.421	0.415	0.543	0.538	0.55	0.556	0.495
NCI-H1395	0.392	0.39	0.355	0.443	0.349	0.726	0.671	0.6	0.601	0.699	0.483	0.474	0.44	0.485	0.365	0.765	0.778	0.783	0.761	0.717
NCI-H1437	1.13	1.16	1.23	1.05	1.08	1.15	0.951	1.1	1.03	1.24	0.359	0.271	0.3	0.275	0.273	0.416	0.431	0.394	0.404	0.401
